Measured values as given in patent US20240282401A1, “METHODS FOR ENZYME ENGINEERING” (The University of Manchester, priority 2021, published 2024).

Molecular target: T1, HDNO D6 (Paenarthrobacter nicotinovorans, UniProt P08159, A237T/A42S/E349L/E351D/N413H/V430A)
T1 construct: This full-length gene design was then used to introduce genetic diversity to create a library; His tag (N); made in house; host or cells: E. coli BL21 (DE3)
Test: Biotransformation turnover frequencies of amine substrates (GC-FID)
Type: biochemical, Arthrobacter nicotinovorans
Settings: for TOF: HDNO D6 0.05 mg mL^−1, 10 mM substrate, 30° C., pH 8 100 mM buffer, conversions after 10 min; for Fold increase vs D2: TOF of HDNO D6 over HDNO D2 (0.2 mg ml^−1)
Protocol: Chiral normal phase HPLC was performed on an Agilent HPLC system (G1379A degasser, G1312A binary pump, a G1367A well plate autosampler unit, a G1316A temperature-controlled column compartment and a G1315C diode array detector) (Agilent Technologies Inc., Santa Clara, CA) equipped with a CHIRALCEL OD-H (250 mm length, 4.6 mm diameter, 5 μm particle size) analytical column (Daicel Corp., Osaka, Japan). The typical injection volume was 10 μL and chromatograms were monitored at 265 nm. Gas chromatographic (GC) analysis was performed on an Agilent 6850 GC (Agilent Technologies Inc., Santa Clara, CA) with a flame ionization detector and autosampler equipped with a HP-1 column of length 30 m, 0.32 mm inner diameter and 0.25 μm film thickness (Agilent Technologies Inc., Santa Clara, CA).
A typical 500 μL reaction mixture in a 2 mL tube contained 10 mM amine, 0.05 to 1 mg mL^−1 of purified HDNO variant in pH 8 100 mM NaPi buffer. Reactions were incubated at 30° C. with 250 r.p.m shaking for different reaction times, after which they were quenched by the addition of 50 μL of 10 M NaOH and extracted twice with 500 μL tert-butyl methyl ether (HPLC grade, Merck Life Science UK Limited, Gillingham). The organic fractions were combined and dried over anhydrous MgSO4 and analysed by GC-FID (conversions) or HPLC (enantiomeric ratios) on a chiral stationary phase (see Chromatography section for details). Turnover frequencies (TOF, min^−1) were calculated as the moles of product formed/moles of enzyme min^−1 based on conversions obtained by GC-FID analysis (see Chromatography method). The same response factor was considered for both substrate and product.

T1 sequence (P08159 other isoform, or with tags, fused parts or gaps A42S/A237T/E349L/E351D/N413H/V430A/C432S): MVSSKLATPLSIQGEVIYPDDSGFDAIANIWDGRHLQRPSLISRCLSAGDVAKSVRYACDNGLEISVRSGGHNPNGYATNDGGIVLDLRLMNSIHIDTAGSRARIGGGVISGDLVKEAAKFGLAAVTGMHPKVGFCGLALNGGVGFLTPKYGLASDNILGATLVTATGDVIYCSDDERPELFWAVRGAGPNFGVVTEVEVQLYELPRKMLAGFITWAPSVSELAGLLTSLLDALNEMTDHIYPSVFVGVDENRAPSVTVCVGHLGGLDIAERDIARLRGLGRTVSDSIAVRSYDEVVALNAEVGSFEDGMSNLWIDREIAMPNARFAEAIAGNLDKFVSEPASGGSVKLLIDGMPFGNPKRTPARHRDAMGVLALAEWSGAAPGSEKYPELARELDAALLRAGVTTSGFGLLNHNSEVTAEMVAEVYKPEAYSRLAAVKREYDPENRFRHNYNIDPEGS

With c1ccc([C@H]2CCCN2)cc1 [Mutant 1a, (R)-2-phenylpyrrolidine] as the molecule, how does the TOF read?
The TOF was 79.8 min⁻¹.

What about the “Fold increase vs D2” value of the same molecule?
The value was 5.8 fold.

What does the source list for CN(C)c1ccc(C2CCCN2)cc1 (centres unmarked) [Mutant 1b, 2-(4-dimethylaminophenyl)-pyrrolidine]?
TOF: 181.2 min⁻¹; Fold increase vs D2: 10.2 fold

How did the TOF turn out when c1ccc(CCC2CCCN2)cc1 (centres unmarked) [Mutant 1c] was run?
The TOF was 28.8 min⁻¹.

What about the “Fold increase vs D2” value of the same molecule?
Its value is 5.9 fold.

Which TOF does the source give for Clc1cccc(C2CCCN2)c1 (centres unmarked) [Mutant 1d] here?
The TOF was 135.6 min⁻¹.

Which TOF does the source give for c1ccc(CCC2CCCCN2)cc1 (centres unmarked) [Mutant 1f] here?
Its TOF is 8.4 min⁻¹.

CC(N)c1ccccc1 (centres unmarked) [Mutant 1g] was tested. Which TOF did it give?
The TOF was 0.66 min⁻¹.

Which TOF does the source give for CCCCC[C@@H](C)N [Mutant 1h] here?
The TOF was 0.42 min⁻¹.

C1CC2CNCC2C1 (centres unmarked) [Mutant 1i] was tested. Which TOF did it give?
Its TOF is “no measurable activity”.
